Laboratory results reported in patent publication US5885786A, “Methods for screening of substances for inhibition of multidrug resistance” (priority 1996, dated 1999).
pIC50: −log10 of the molar value. “Also recorded” adds a separate entry of the source. *1 amine or outer side, *2 acyl side, *3 side chain or, on linkers, in order; H or OH if unused. Where a SMILES comes first, the peptide text is derived from it. Bridges are numbered along the chain shown (N, C = ends). Roman numbers before positions name the chains, in order. [ ]: non-standard residue; d: D form. Actinocin(9to1) = Cc1c2oc3c(C)ccc(C(=O)[*:1])c3nc-2c(C(=O)[*:2])c(N)c1=O; NMeV = CN[C@H](C(=O)O)C(C)C; Sar = CNCC(=O)O

What was measured:
[1] = cited from earlier work; for absorption (in words): oral or unspecified
[2] = in vivo; cited from earlier work
MCF-7-AdrR cells = test: Cell proliferation (MTS) assay: adriamycin toxicity and chemosensitization; details: for effect on adriamycin toxicity / chemosensitization (in words): 5.0 μM tested drug + adriamycin, 72 h, FIG. 15A, 16B
Description: FIG. 15A and FIG. 15B. […] FIG. 15B: Glycosylceramide levels in MDR Cells following drug treatment. […] In order to avoid differences in [^3 H]glycosylceramide values which account for cell death, the same amount of total radioactive lipid from each sample was applied to TLC separation.
FIG. 16A and FIG. 16B. […] FIG. 16A: Effect of PPMP on cellular glycosylceramide levels. […] [^3 H]Glycosylceramide was quantitated as described in the legend to FIG. 9.
Vehicle (acetone, ethanol) was always added to control (minus drug) wells. The cytotoxic activity of a drug was determined using the Promega CellTiter 96™ AQueous MTS cell proliferation assay kit. Each experimental point was performed in six replicates. MTS/PMS solution (20 μl/well) was aliquoted into all wells, and the cells were incubated for 2-3 h, or until an O.D. of 0.9-1.0 was obtained as a highest reading. Thereafter, absorbence at 490 nm was recorded using an ELISA plate reader (Molecular Devices, San Diego, Calif.).

[3] = system: lipid-1 and -2 formation in MCF-7-AdrR cells; test: Effect of inhibitors of sphingolipid biosynthesis on lipid-1 and -2 formation; assay type: cell-based
Method: FIG. 5A, FIG. 5B, and FIG. 5C. Effect of inhibitors of sphingolipid biosynthesis on lipid-1 and -2 formation in MCF-7-AdrR cells. Cells, grown to near-confluency in 100×20 mm culture dishes, were radiolabeled with [^3 H]palmitic acid (FIG. 5A), or [^3 H]serine (FIG. 5B, FIG. 5C), in the presence or absence of 10 mM L-cycloserine (FIG. 5A), 50 μM FB1 (FIG. 5B), or 20 μM PPMP (FIG. 5C), for 24 h in RPMI-1640 medium containing 0.1% BSA. Extracted lipids were analyzed by TLC using solvent system II (FIG. 5A, FIG. 5B), or solvent system III (FIG. 5C) as described in Example I. Lac-cer, lactosylceramide.
The effects of various inhibitors of sphingolipid biosynthesis were investigated, using MCF-7-AdrR cells, labeled with either [^3 H]palmitic acid, or [^3 H]serine. The first enzymatic reaction in sphingoid base biosynthesis, catalyzed by serine:palmitoyltransferase, is the formation of 3-ketosphinganine from serine and palmitoyl-CoA (FIG. 1).

[4] = system: glycosylceramide synthesis in MCF-7-AdrR cells; test: Effect of PPMP on cellular glycosylceramide levels, [3H]serine 24 h; assay type: cell-based; details: FIG. 16A
Description: FIG. 16A and FIG. 16B. […] FIG. 16A: Effect of PPMP on cellular glycosylceramide levels.

[5] = system: OVCAR-3 (MDR ovarian carcinoma); details: clinically relevant concentrations (Rogan et al., 1984); cited from earlier work
[6] = system: P388-adriamycin resistant cells; details: literature; cited from earlier work
P-glycoprotein = details: literature; cited from earlier work
[7] = system: glycosylation of ceramide in MCF-7-AdrR cells (UDP-glucose:ceramide glucosyltransferase); test: Glycosylation of C6-ceramide and natural glycosphingolipid synthesis, [3H]galactose labeling; assay type: cell-based
Method: FIG. 14A and FIG. 14B. Effect of Tamoxifen on Ceramide Synthesis and Glycosylation in MCF-7-AdrR Cells. FIG. 14: A Influence of tamoxifen on ceramide synthesis. The experiment was conducted as described in the legend to FIG. 13. Aliquots of the total lipid extract were based-hydrolyzed as described in Example I, separated by TLC using solvent system IV, and the resolved [^3 H]ceramide was quantitated by liquid scintillation spectrometry. Results are the mean±SEM of duplicate determinations from two separate experiments. FIG. 14B: Effect of tamoxifen on glycosylation of C6 -ceramide. Cells, in 100×20 mm culture dishes, were preincubated without or with 5.0 μM tamoxifen for 30 min, followed by incubation without or with 5.0 μM C6 -ceramide:BSA (prepared at a 1:1 molar ratio) for an additional 30 min. Cells were labeled thereafter with 1.0 μCi/ml [^3 H]galactose for 24 h. [3H]Galactose uptake was determined and found to be similar in all experimental points (1.0×10^6 cpm/dish). The total extracted lipid was applied to TLC separation and [^3 H]glycosphingolipids were analyzed as described in the legend to FIG. 10. The autoradiography of a representative chromatogram is shown.
In order to explore this notion, a short-chain ceramide analog with a 6-carbon N-acyl group (C6 -ceramide), was utilized as a substrate.

[8] = system: glycosylceramide formation in MCF-7-AdrR cells; test: Inhibition of [3H]glycosylceramide formation in MCF-7-AdrR cells (TLC, liquid scintillation); assay type: cell-based; details: 5.0 μM drug, 24 h, MCF-7-AdrR, FIG. 11B; read-out: inhibition of glycosylceramide formation (cpm tritium)
Method: FIG. 9. […] Values represent the mean of determinations from three separate experiments, and are calculated as the percent glycosylceramide in the total lipid tritium extract.
FIG. 11A and FIG. 11B. […] FIG. 11: A Autoradiography. […] For autoradiography equal aliquots by volume of total lipid extract were applied to TLC plates. […] [^3 H]Glycosylceramide, visualized in panel A, was quantitated as described in the legend to FIG. 9. Each value represents mean±SEM of determinations from three separate experiments.
FIG. 12. […] [^3 H]Glycosylceramide was quantitated as described in the legend to FIG. 9. Results represents the mean±SEM of determinations from three separate experiments.
MCF-7 cells, grown in medium containing 10% FBS, were switched to media containing 5% FBS. Cell lipids were radiolabeled by adding [^3 H]serine (2.0 μCi/ml), [^3 H]palmitic acid (1.0 μCi/ml), or [^3 H]galactose (1.0 μCi/ml) to the culture medium for the indicated times. Other radiolabels can be substituted. Cells were then rinsed twice with PBS, pH 7.4, and 2 ml of ice-cold methanol containing 2% acetic acid was added. The cells were scraped free, transferred to glass test tubes (13×100 mm), and lipids were extracted by the addition of chloroform (2 ml) followed by water (2 ml). The resulting organic lower phase was withdrawn and evaporated under a stream of nitrogen. Lipids were resuspended in 100 μL of chloroform/methanol (1:1, v/v), and aliquots were applied to TLC plates.
Lipid analysis was carried out by TLC using solvent system I: chloroform/methanol/ammonium hydroxide (40:10:1, v/v) for glycosylceramide separation, solvent system II: chloroform/methanol/water (60:40:8, v/v) for sphingoglycolipid separation, or solvent system III: chloroform/methanol/acetic acid/water (50:30:7:3, v/v) for sphingomyelin separation. For determination of ceramides, an aliquot of the chloroform-soluble lipids was base-hydrolyzed in 0.1N KOH in methanol for 1 h at 37° C., lipids were re-extracted, and separated by TLC using solvent system IV: hexane/diethyl ether/formic acid (60:40:1, v/v).
Radiochromatograms were sprayed with EN^3 HANCE, and exposed for 3-7 days for autofluorgraphy. TLC areas, aligned with bands on the autoradiographs or with iodine-stained commercial lipid standards, were scraped from the plate. Water (0.5 ml) was added to the plate scrapings followed by 4.5 ml of EcoLume counting fluid, and the samples were quantitated by liquid scintillation spectrometry.

[9] = cited from earlier work
acid sphingomyelinase = details: literature; cited from earlier work
[10] = cited from earlier work; remark: listed apart in the source
[11] = 5.0 μM C6-ceramide, FIG. 14B, […]
[12] = 10 mM L-cycloserine, [3H]palmitic acid, FIG. 5A

CC[C@]1(O)C[C@H]2CN(CCc3c([nH]c4ccccc34)[C@@](C(=O)OC)(c3cc4c(cc3OC)N(C=O)[C@H]3[C@@](O)(C(=O)OC)[C@H](OC(C)=O)[C@]5(CC)C=CCN6CC[C@]43[C@@H]65)C2)C1 [Vincristine]
distribution in blood cells (in words) ([1]; in vivo): extensively concentrated in platelets
plasma protein binding (in words) ([1]; in vivo): bind to plasma proteins
absorption (in words) [1]: Unpredictable absorption
tolerability / toxicity (in words) [2]: sever neurological toxicity

CCCCCCCCCCCCCCCC(=O)NC(CN1CCOCC1)C(O)c1ccccc1 (stereo not shown) [PPMP]
effect on adriamycin toxicity / chemosensitization (in words) (MCF-7-AdrR cells): clear sensitization; also recorded: effectively decreased cell survival
effect of the substance alone on cell survival (in words) (MCF-7-AdrR cells; MCF-7-AdrR, alone): no influence itself on cell viability; also recorded: no effect
ceramide levels (in words) ([3]; 20 μM PPMP, FIG. 5C): elevation in ceramide levels
lactosylceramide and gangliosides (in words) ([3]; 20 μM PPMP, FIG. 5C): concomitant reduction
formation of lipid-1 and -2 (in words) ([3]; 20 μM PPMP, [3H]serine, FIG. 5C): blocked completely
inhibition at 5 µM ([4]; 24 h, 5.0 μM PPMP, read-out: maximal reduction in cellular glycosylceramide levels): 86%
pIC50 ([4]; PPMP, [3H]serine 24 h, read-out: IC50 for inhibition of glycosylceramide formation): 6.05

N.N.[Cl][Pt][Cl] [cisplatin]
absorption (in words) [1]: not absorbed orally
resistance of OVCAR-3 to the drug (in words) [5]: resistant

COc1cc(C[C@H]2c3cc(OC)c(OC)cc3CCN2C)c(Oc2cc3c(cc2OC)-c2c(OC)c(OC)cc4c2[C@H](C3)N(C)CC4)cc1OC [thaliblastine]
reversal of MDR / adriamycin resistance in P388 cells (in words) [6]: reverses adriamycin resistance
binding to P-glycoprotein (in words) (P-glycoprotein): binds to P-glycoprotein

CCCCCCCCCCCCC/C=C/[C@@H](O)[C@H](CO)NC(=O)CCCCC [C6 -ceramide]
natural glycosylceramide level (in words) ([7]; 5.0 μM C6-ceramide, FIG. 14B): not altered
reduction of ganglioside synthesis [7, 11]: 35%
reduction of natural lactosylceramide synthesis [7, 11]: 33%
formation of C6-glycosylceramide (in words) ([7]; cells incubated with C6-ceramide): clearly visible

CCC(=C(c1ccccc1)c1ccccc1)c1ccccc1 [triphenylbutene]
effect on adriamycin toxicity / chemosensitization (in words) (MCF-7-AdrR cells): no effect
inhibition at 5 µM [8]: 13%

Cc1c2oc3c(C)ccc(C(=O)N[C@@H]4C(=O)N[C@H](C(C)C)C(=O)N5CCC[C@H]5C(=O)N(C)CC(=O)N(C)[C@@H](C(C)C)C(=O)O[C@@H]4C)c3nc-2c(C(=O)N[C@@H]2C(=O)N[C@H](C(C)C)C(=O)N3CCC[C@H]3C(=O)N(C)CC(=O)N(C)[C@@H](C(C)C)C(=O)O[C@@H]2C)c(N)c1=O [Actinomycin D] (I: T[dV]P[Sar][NMeV] / II: T[dV]P[Sar][NMeV]; ester I:1-I:C, II:1-II:C; linker I:N-II:N via Actinocin(9to1))
excreted into the urine ([1]; in vivo, iv): 10%
half-life ([1]; in vivo, iv): about 36 hr
blood-brain barrier passage (in words) ([1]; in vivo): does not pass the blood-brain barrier
dose excreted intact into the bile (in words) ([1]; in vivo): Half of the dose

O=NN(CCCl)C(=O)NC1CCCCC1 [Lomustine, 1-(2-chloro-ethyl)-3-cyclohexyl-1 nitrosourea]
ionization (in words) ([9]; physiological pH): relatively unionized
solubility in water (in words) [9]: relatively insoluble
tissue levels vs plasma levels (in words) ([1]; 15 minutes after intravenous administration): comparable to plasma levels
excretion of radioactivity as degradation products (in words) ([1]; within 24 hours, oral 30 mg/m^2 to 100 mg/m^2): about half

COc1ccc(CCN(C)CCCOc2ccc(S(=O)(=O)c3c(C(C)C)cn4ccccc34)cc2)cc1OC [SR33557]
inhibition of acid sphingomyelinase (in words) (acid sphingomyelinase): inhibition of acid sphingomyelinase
reversal of MDR / adriamycin resistance in P388 cells (in words) [6]: reverse MDR

CCCCC(C)C(OC(=O)CC(CC(=O)O)C(=O)O)C(CC(C)CC(O)CCCCC(O)CC(O)C(C)N)OC(=O)CC(CC(=O)O)C(=O)O (stereo not shown) [FB1]
level of both lipid-1 and -2 (in words) ([3]; 50 μM FB1, [3H]serine, FIG. 5B): profound reduction

O=NN(CCCl)C(=O)NCCCl [Carmustine, 1,3bis (2-chloroethyl)-1-nitrosourea]
solubility in water (in words) [9]: poorly soluble in water

N[C@H]1CONC1=O [L-cycloserine]
lipid-1 formation (in words) [3, 12]: almost complete disappearance
lipid-2 formation (in words) [3, 12]: major inhibition

CO[C@@]12[C@H](COC(N)=O)C3=C(C(=O)C(C)=C(N)C3=O)N1C[C@@H]1N[C@@H]12 [Mitomycin]
fraction of dose excreted unchanged in the urine ([10]; human, in vivo, iv): Approximately 10%
clearance from the serum (in words) ([10]; intravenous): rapidly cleared
